Assay [1] deals with T1, Lm CdaA (∆100CdaA) (Listeria monocytogenes, UniProt Q8Y5E4).
T1 construct: gene dacA; DAC domain, lacks transmembrane domain and linker (first 100 residues deleted); N-terminal GST tag cut with PreScission protease; plasmid pGEXpBP33, E. coli BL21(DE3); residues to at least 268 mentioned (96-104 and 256-268 disordered); non-catalytic back-to-back dimer in crystal
T1 sequence (Q8Y5E4 101-273): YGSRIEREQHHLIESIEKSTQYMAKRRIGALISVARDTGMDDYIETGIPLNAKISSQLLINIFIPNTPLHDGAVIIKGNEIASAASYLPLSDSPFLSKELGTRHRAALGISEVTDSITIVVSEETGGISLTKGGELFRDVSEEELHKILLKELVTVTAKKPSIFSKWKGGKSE
In words: ITC, […] binding model. On the technique in general: Isothermal titration calorimetry measures the heat released or taken up as one component is titrated into another.

In assay [2] the target is T1, Lm CdaA (∆100CdaA). The assay can be described thus: crystal structure by soaking. The class given is binding. Conditions: active site, chain A.

Experimental findings from publication PMC10167629, “Computer-aided design of a cyclic di-AMP synthesizing enzyme CdaA inhibitor” (microLife, 2023) are described below.

What is called Kd is the constant that tells how readily two partners part at equilibrium. Low values mean a tighter complex, high ones a looser complex. Regarding `CC(=O)Nc1nc(C)c(-c2csc(N)n2)s1` [compound 7], binding at Lm CdaA (∆100CdaA) [1] was characterised by a dissociation constant (Kd) of 16.3 ± 2.5 µM.

For the compound `Nc1ncnc2c1ncn2[C@@H]1O[C@H](CO)[C@@H](O)[C@H]1O` [adenosine], the “crystal structure by soaking” value at Lm CdaA (∆100CdaA) [2] was “we have determined crystal structures of CdaA complexes with adenine (Fig. 3B), adenosine (Fig. 3C)”.
